Test results taken from PubChem BioAssay AID248 (DTP/NCI, 2004).
Values joined by “and” are separate entries in the source; they are usually repeats but may differ in a detail not shown here. Identical values can stand only once. Inconclusive results and toxic doses are left out. No stated cut-off is given here; in the data, active means T/C of 150% or more; inactive means T/C below 125%.

Test system: L1210 leukemia ip in BDF1 mice, survival T/C
Test: NCI In Vivo Anticancer Drug Screen. Data for tumor model L1210 Leukemia (intraperitoneal) in B6D2F1 (BDF1) mice
Conditions: endpoint: mean survival time, higher = longer survival
Summary of the method: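 In this screen, tumor-bearing mice given compound are compared to those given vehicle, and their survival values are reported as a treated-to-control quotient.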

[1] = dose: 100.0 mg/kg/injection, schedule: Q01DX009 (ip), vehicle: saline
[2] = dose: 100.0 mg/kg/injection, schedule: Q04DX003 (ip), vehicle: saline
[3] = dose: 200.0 mg/kg/injection, schedule: Q01DX009 (ip), vehicle: saline
[4] = dose: 200.0 mg/kg/injection, schedule: Q04DX003 (ip), vehicle: saline
[5] = dose: 400.0 mg/kg/injection, schedule: Q01DX009 (ip), vehicle: saline
[6] = dose: 400.0 mg/kg/injection, schedule: Q04DX003 (ip), vehicle: saline
[7] = dose: 12.5 mg/kg/injection, schedule: Q01DX009 (ip), vehicle: saline
[8] = dose: 25.0 mg/kg/injection, schedule: Q01DX009 (ip), vehicle: saline
[9] = dose: 200.0 mg/kg/injection, schedule: Q01DX001 (ip), vehicle: carboxymethylcellulose (CMC)
[10] = dose: 100.0 mg/kg/injection, schedule: Q01DX009 (ip), vehicle: Klucel (hydroxypropylcellulose) (HPC)
[11] = dose: 100.0 mg/kg/injection, schedule: Q04DX003 (ip), vehicle: Klucel (hydroxypropylcellulose) (HPC)
[12] = dose: 200.0 mg/kg/injection, schedule: Q01DX009 (ip), vehicle: Klucel (hydroxypropylcellulose) (HPC)
[13] = dose: 200.0 mg/kg/injection, schedule: Q04DX003 (ip), vehicle: Klucel (hydroxypropylcellulose) (HPC)
[14] = dose: 400.0 mg/kg/injection, schedule: Q01DX009 (ip), vehicle: Klucel (hydroxypropylcellulose) (HPC)
[15] = dose: 400.0 mg/kg/injection, schedule: Q04DX003 (ip), vehicle: Klucel (hydroxypropylcellulose) (HPC)
[16] = dose: 50.0 mg/kg/injection, schedule: Q01DX009 (ip), vehicle: saline
[17] = dose: 100.0 mg/kg/injection, schedule: Q01DX001 (ip), vehicle: Klucel (hydroxypropylcellulose) (HPC)
[18] = dose: 200.0 mg/kg/injection, schedule: Q01DX001 (ip), vehicle: Klucel (hydroxypropylcellulose) (HPC)
[19] = dose: 400.0 mg/kg/injection, schedule: Q01DX001 (ip), vehicle: Klucel (hydroxypropylcellulose) (HPC)

Measured: T/C

C/C=C/c1ccc(O)c(OC)c1
inactive: dose: 100.0 mg/kg/injection, schedule: Q04DX002 (ip), vehicle: saline with Tween-80 92 % of control | dose: 200.0 mg/kg/injection, schedule: Q04DX002 (ip), vehicle: saline with Tween-80 86 % of control | dose: 400.0 mg/kg/injection, schedule: Q04DX002 (ip), vehicle: saline with Tween-80 86 % of control

CCOC(=O)C1C(=O)NC(=O)CC1C (stereo not drawn)
inactive: dose: 100.0 mg/kg/injection, schedule: Q04DX003 (ip), vehicle: saline with Tween-80 98 % of control | dose: 200.0 mg/kg/injection, schedule: Q01DX009 (ip), vehicle: saline with Tween-80 100 % of control | dose: 200.0 mg/kg/injection, schedule: Q04DX003 (ip), vehicle: saline with Tween-80 96 % of control | dose: 400.0 mg/kg/injection, schedule: Q01DX009 (ip), vehicle: saline with Tween-80 101 % of control | dose: 400.0 mg/kg/injection, schedule: Q04DX003 (ip), vehicle: saline with Tween-80 104 % of control

N#Cc1cnccn1
inactive: [1] 103 % of control | [2] 93 % of control | [3] 104 % of control | [4] 100 % of control | [5] 104 % of control | [6] 93 % of control

CN(C)C(c1ccccc1)C(CBr)C(=O)c1ccc(Br)cc1 (stereo not drawn)
inactive: [7] 93 % of control | dose: 12.5 mg/kg/injection, schedule: Q04DX003 (ip), vehicle: saline with Tween-80 96 % of control | [8] 91 % of control | dose: 25.0 mg/kg/injection, schedule: Q04DX003 (ip), vehicle: saline with Tween-80 102 % of control | dose: 50.0 mg/kg/injection, schedule: Q04DX003 (ip), vehicle: saline with Tween-80 96 % of control

CC(=O)OC1CCC2(C)C(CCC3C2CC(=O)C2(C)C3CC(N3CC3)C2C(C)=O)C1 (stereo not drawn)
inactive: dose: 100.0 mg/kg/injection, schedule: Q01DX001 (sc), vehicle: steriod suspending solution 89 % of control | dose: 200.0 mg/kg/injection, schedule: Q01DX001 (sc), vehicle: steriod suspending solution 99 % of control | dose: 400.0 mg/kg/injection, schedule: Q01DX001 (sc), vehicle: steriod suspending solution 99 % of control

CC(=O)Nc1ccc(NC(=O)Nc2ccccc2C(F)(F)F)cc1
inactive: dose: 100.0 mg/kg/injection, schedule: Q01DX001 (ip), vehicle: carboxymethylcellulose (CMC) 94 % of control and 90 % of control | dose: 100.0 mg/kg/injection, schedule: Q01DX009 (ip), vehicle: carboxymethylcellulose (CMC) 93 % of control and 97 % of control | dose: 100.0 mg/kg/injection, schedule: Q04DX002 (ip), vehicle: carboxymethylcellulose (CMC) 95 % of control and 102 % of control | dose: 100.0 mg/kg/injection, schedule: Q04DX003 (ip), vehicle: carboxymethylcellulose (CMC) 100 % of control and 117 % of control | [9] 94 % of control and 90 % of control | dose: 200.0 mg/kg/injection, schedule: Q01DX009 (ip), vehicle: carboxymethylcellulose (CMC) 94 % of control and 96 % of control | dose: 200.0 mg/kg/injection, schedule: Q04DX002 (ip), vehicle: carboxymethylcellulose (CMC) 96 % of control and 92 % of control | dose: 200.0 mg/kg/injection, schedule: Q04DX003 (ip), vehicle: carboxymethylcellulose (CMC) 95 % of control and 99 % of control | dose: 400.0 mg/kg/injection, schedule: Q01DX001 (ip), vehicle: carboxymethylcellulose (CMC) 97 % of control | dose: 400.0 mg/kg/injection, schedule: Q01DX009 (ip), vehicle: carboxymethylcellulose (CMC) 98 % of control and 91 % of control | dose: 400.0 mg/kg/injection, schedule: Q04DX002 (ip), vehicle: carboxymethylcellulose (CMC) 86 % of control | dose: 400.0 mg/kg/injection, schedule: Q04DX003 (ip), vehicle: carboxymethylcellulose (CMC) 91 % of control

CCCCC(=O)c1ccc(F)cc1
inactive: [10] 96 % of control | [11] 105 % of control | [12] 98 % of control | [13] 93 % of control | [14] 98 % of control | [15] 100 % of control

Cc1ccccc1OCC(O)CO (stereo not drawn)
inactive: [8] 95 % of control | dose: 25.0 mg/kg/injection, schedule: Q04DX003 (ip), vehicle: saline 101 % of control | [16] 93 % of control | dose: 50.0 mg/kg/injection, schedule: Q04DX003 (ip), vehicle: saline 95 % of control | [1] 102 % of control | [2] 95 % of control | [3] 102 % of control | [4] 111 % of control | [5] 98 % of control | [6] 123 % of control

CCC(CC)N(C)C(C)(C)CO
inactive: dose: 100.0 mg/kg/injection, schedule: Q04DX003 (ip), vehicle: saline sonified 90 % of control | dose: 200.0 mg/kg/injection, schedule: Q04DX003 (ip), vehicle: saline sonified 87 % of control

O=C(CNC1=NCCN1)Nc1ccc(NC(=O)c2ccc(C(=O)Nc3ccc(NC(=O)CNC4=NCCN4)cc3)cc2)cc1
inactive: dose: 30.0 mg/kg/injection, schedule: Q01DX Z (ip), vehicle: water 114 % of control | dose: 40.0 mg/kg/injection, schedule: Q01DX Z (ip), vehicle: water 120 % of control | dose: 50.0 mg/kg/injection, schedule: Q01DX Z (ip), vehicle: water 121 % of control | dose: 62.5 mg/kg/injection, schedule: Q01DX Z (ip), vehicle: water 124 % of control | dose: 125.0 mg/kg/injection, schedule: Q01DX Z (ip), vehicle: water 118 % of control | dose: 250.0 mg/kg/injection, schedule: Q01DX Z (ip), vehicle: water 109 % of control | dose: 500.0 mg/kg/injection, schedule: Q01DX Z (ip), vehicle: water 106 % of control

CC1C(c2ccccc2)CC(c2ccccc2)OS1(=O)=O (stereo not drawn)
inactive: [17] 95 % of control | [11] 103 % of control | [18] 97 % of control | [13] 94 % of control | [19] 93 % of control | [15] 97 % of control

Cc1ccc(S(=O)(=O)OCCC2CCCCC2COS(=O)(=O)c2ccc(C)cc2)cc1 (stereo not drawn)
inactive: [1] 100 % of control | [11] 100 % of control | [3] 91 % of control | [13] 99 % of control | [5] 96 % of control | [15] 94 % of control

CCOC(=O)c1c(C)[nH]c2ccc(O)cc12
inactive: [10] 92 % of control | [11] 95 % of control | [12] 104 % of control | [13] 100 % of control | [14] 114 % of control | [15] 100 % of control

N#CC(C#N)=NNc1cccc(Cl)c1Cl
inactive: dose: 5.0 mg/kg/injection, schedule: Q01DX009 (ip), vehicle: saline with Tween-80 90 % of control | dose: 10.0 mg/kg/injection, schedule: Q01DX009 (ip), vehicle: saline with Tween-80 88 % of control

CC(CN)OCc1ccccc1 (stereo not drawn)
inactive: [7] 97 % of control | [8] 99 % of control | [16] 104 % of control

Cc1cn2ccccc2c[n+]1=O
inactive: dose: 5.0 mg/kg/injection, schedule: Q01DX009 (ip), vehicle: saline sonified 98 % of control | dose: 10.0 mg/kg/injection, schedule: Q01DX009 (ip), vehicle: saline sonified 98 % of control | dose: 20.0 mg/kg/injection, schedule: Q01DX009 (ip), vehicle: saline sonified 87 % of control

COc1cc(/C=C2\C=Nc3ccccc32)ccc1O
inactive: dose: 100.0 mg/kg/injection, schedule: Q04DX002 (ip), vehicle: Klucel (hydroxypropylcellulose) (HPC) 97 % of control | dose: 200.0 mg/kg/injection, schedule: Q04DX002 (ip), vehicle: Klucel (hydroxypropylcellulose) (HPC) 105 % of control | dose: 400.0 mg/kg/injection, schedule: Q04DX002 (ip), vehicle: Klucel (hydroxypropylcellulose) (HPC) 102 % of control

Nc1csc2ncccc12
inactive: [17] 112 % of control | [18] 105 % of control | [19] 114 % of control

COC(=O)C(N)CSCc1ccccc1 (stereo not drawn)
inactive: [2] 87 % of control | [4] 89 % of control | [6] 94 % of control

CCc1ccccc1NC(=O)N(Cc1ccccc1)Cc1ccccc1
inactive: [10] 101 % of control | [12] 97 % of control | [14] 96 % of control

O=C(O)CCCCCCCCCCCO
inactive: [11] 100 % of control | [13] 97 % of control | [15] 91 % of control

Nc1ncnc2cc[nH]c12
inactive: dose: 88.0 mg/kg/injection, schedule: Q01DX001 (ip), vehicle: carboxymethylcellulose (CMC) 102 % of control and 104 % of control | dose: 133.0 mg/kg/injection, schedule: Q01DX001 (ip), vehicle: carboxymethylcellulose (CMC) 96 % of control and 104 % of control | [9] 102 % of control and 106 % of control
